Experiments:
[1] = target: Calcium/calmodulin-dependent protein kinase type II subunit beta (Homo sapiens) (UniProt Q13554); assay: Inhibition of CAMK2B at 10 uM; conditions: values are per cent of control
[2] = target: Serine/threonine-protein kinase PLK3 (Homo sapiens) (UniProt Q9H4B4); assay: Inhibition of PLK3 at 10 uM
[3] = target: Ephrin type-A receptor 6 (Homo sapiens) (UniProt Q9UF33); assay: Inhibition of EPHA6 at 10 uM; conditions: values are per cent of control
[4] = system: Proto-oncogene tyrosine-protein kinase receptor Ret (Homo sapiens), P07949 [V804M]; assay: Inhibition of RET V804M mutant at 10 uM; values are per cent of control
[5] = target: Interleukin-1 receptor-associated kinase 3 (Homo sapiens) (UniProt Q9Y616); assay: Inhibition of IRAK3 at 10 uM; conditions: values are per cent of control
[6] = target: Calcium/calmodulin-dependent protein kinase type II subunit delta (Homo sapiens) (UniProt Q13557); assay: Inhibition of CAMK2D at 10 uM; conditions: values are per cent of control
[7] = target: Protein kinase C eta type (Homo sapiens) (UniProt P24723); assay: Inhibition of PRKCH at 10 uM
[8] = target: Serine/threonine-protein kinase ULK2 (Homo sapiens) (UniProt Q8IYT8); assay: Inhibition of ULK2 at 10 uM; conditions: values are per cent of control
[9] = system: Tyrosine-protein kinase ABL1 (Homo sapiens), P00519 [H396P]; assay: Inhibition of phosphorylated ABL1 H396P mutant at 10 uM; conditions: values are per cent of control
[10] = target: Casein kinase I isoform delta (Homo sapiens) (UniProt P48730); assay: Inhibition of CSNK1D at 10 uM; values are per cent of control
[11] = system: Phosphatidylinositol 4,5-bisphosphate 3-kinase catalytic subunit alpha isoform (Homo sapiens), P42336 [E545K]; assay: Inhibition of PIK3CA E545K mutant at 10 uM
[12] = system: Mast/stem cell growth factor receptor Kit (Homo sapiens), P10721 [V559D,T670I]; assay: Inhibition of KIT V559D, T670I mutant at 10 uM; conditions: values are per cent of control
[13] = target: Mitogen-activated protein kinase kinase kinase 9 (Homo sapiens) (UniProt P80192); assay: Inhibition of MLK1 at 10 uM
[14] = target: Ephrin type-B receptor 3 (Homo sapiens) (UniProt P54753); assay: Inhibition of EPHB3 at 10 uM; conditions: values are per cent of control
[15] = system: Receptor-type tyrosine-protein kinase FLT3 (Homo sapiens), P36888 [N841I]; assay: Inhibition of FLT3 N841I mutant at 10 uM; conditions: values are per cent of control
[16] = target: Serine/threonine-protein kinase RIO2 (Homo sapiens) (UniProt Q9BVS4); assay: Inhibition of RIOK2 at 10 uM; conditions: values are per cent of control
[17] = target: Myosin light chain kinase, smooth muscle (Homo sapiens) (UniProt Q15746); assay: Inhibition of MYLK at 10 uM
[18] = target: Serine/threonine-protein kinase PLK2 (Homo sapiens) (UniProt Q9NYY3); assay: Inhibition of PLK2 at 10 uM; conditions: values are per cent of control
[19] = target: Phosphorylase b kinase gamma catalytic chain, liver/testis isoform (Homo sapiens) (UniProt P15735); assay: Inhibition of PHKG2 at 10 uM
[20] = target: SNF-related serine/threonine-protein kinase (Homo sapiens) (UniProt Q9NRH2); assay: Inhibition of SNRK at 10 uM
[21] = target: Dual specificity mitogen-activated protein kinase kinase 5 (Homo sapiens) (UniProt Q13163); assay: Inhibition of MEK5 at 10 uM; conditions: values are per cent of control
[22] = target: Wee1-like protein kinase (Homo sapiens) (UniProt P30291); assay: Inhibition of WEE1 at 10 uM; conditions: values are per cent of control
[23] = target: Discoidin domain-containing receptor 2 (Homo sapiens) (UniProt Q16832); assay: Inhibition of DDR2 at 10 uM; conditions: values are per cent of control
[24] = target: Death-associated protein kinase 3 (Homo sapiens) (UniProt O43293); assay: Inhibition of DAPK3 at 10 uM; conditions: values are per cent of control
[25] = target: Serine/threonine-protein kinase ICK (Homo sapiens) (UniProt Q9UPZ9); assay: Inhibition of ICK at 10 uM; conditions: values are per cent of control
[26] = target: Cyclin-dependent kinase 14 (Homo sapiens) (UniProt O94921); assay: Inhibition of PFTK1 at 10 uM; conditions: values are per cent of control
[27] = target: Glycogen synthase kinase-3 alpha (Homo sapiens) (UniProt P49840); assay: Inhibition of GSK3A at 10 uM; conditions: values are per cent of control
[28] = target: 3-phosphoinositide-dependent protein kinase 1 (Homo sapiens) (UniProt O15530); assay: Inhibition of PDPK1 at 10 uM
[29] = target: Casein kinase I isoform gamma-1 (Homo sapiens) (UniProt Q9HCP0); assay: Inhibition of CSNK1G1 at 10 uM; values are per cent of control
[30] = target: Cyclin-dependent kinase-like 2 (Homo sapiens) (UniProt Q92772); assay: Inhibition of CDKL2 at 10 uM; conditions: values are per cent of control
[31] = target: Inhibitor of nuclear factor kappa-B kinase subunit beta (Homo sapiens) (UniProt O14920); assay: Inhibition of IKK-beta at 10 uM; conditions: values are per cent of control
[32] = target: Dual specificity mitogen-activated protein kinase kinase 4 (Homo sapiens) (UniProt P45985); assay: Inhibition of MEK4 at 10 uM; conditions: values are per cent of control
[33] = target: Ribosomal protein S6 kinase alpha-6 (Homo sapiens) (UniProt Q9UK32); assay: Inhibition of RSK4 C-terminal domain2 at 10 uM
[34] = target: Cyclin-dependent kinase-like 1 (Homo sapiens) (UniProt Q00532); assay: Inhibition of CDKL1 at 10 uM; conditions: values are per cent of control
[35] = target: Phosphorylase b kinase gamma catalytic chain, skeletal muscle/heart isoform (Homo sapiens) (UniProt Q16816); assay: Inhibition of PHKG1 at 10 uM
[36] = target: Protein-tyrosine kinase 6 (Homo sapiens) (UniProt Q13882); assay: Inhibition of BRK at 10 uM; conditions: values are per cent of control
[37] = target: Phosphatidylinositol 4-kinase beta (Homo sapiens) (UniProt Q9UBF8); assay: Inhibition of PIK4CB at 10 uM
[38] = target: Non-receptor tyrosine-protein kinase TYK2 (Homo sapiens) (UniProt P29597); assay: Inhibition of TYK2 JH1 catalytic domain at 10 uM; conditions: values are per cent of control
[39] = system: Receptor-type tyrosine-protein kinase FLT3 (Homo sapiens), P36888 [K663Q]; assay: Inhibition of FLT3 K663Q mutant at 10 uM; conditions: values are per cent of control
[40] = target: Serine/threonine-protein kinase Nek1 (Homo sapiens) (UniProt Q96PY6); assay: Inhibition of NEK1 at 10 uM
[41] = system: Tyrosine-protein kinase ABL1 (Homo sapiens), P00519 [T315I]; assay: Inhibition of non phosphorylated ABL1 T315I mutant at 10 uM; conditions: values are per cent of control
[42] = target: Serine/threonine-protein kinase 25 (Homo sapiens) (UniProt O00506); assay: Inhibition of YSK1 at 10 uM; conditions: values are per cent of control
[43] = target: Ephrin type-A receptor 3 (Homo sapiens) (UniProt P29320); assay: Inhibition of EPHA3 at 10 uM; conditions: values are per cent of control
[44] = target: Mitogen-activated protein kinase kinase kinase 7 (Homo sapiens) (UniProt O43318); assay: Inhibition of TAK1 at 10 uM; values are per cent of control

Chain of Protein-tyrosine kinase 6 (Homo sapiens) (Q13882 whole entry, looked up): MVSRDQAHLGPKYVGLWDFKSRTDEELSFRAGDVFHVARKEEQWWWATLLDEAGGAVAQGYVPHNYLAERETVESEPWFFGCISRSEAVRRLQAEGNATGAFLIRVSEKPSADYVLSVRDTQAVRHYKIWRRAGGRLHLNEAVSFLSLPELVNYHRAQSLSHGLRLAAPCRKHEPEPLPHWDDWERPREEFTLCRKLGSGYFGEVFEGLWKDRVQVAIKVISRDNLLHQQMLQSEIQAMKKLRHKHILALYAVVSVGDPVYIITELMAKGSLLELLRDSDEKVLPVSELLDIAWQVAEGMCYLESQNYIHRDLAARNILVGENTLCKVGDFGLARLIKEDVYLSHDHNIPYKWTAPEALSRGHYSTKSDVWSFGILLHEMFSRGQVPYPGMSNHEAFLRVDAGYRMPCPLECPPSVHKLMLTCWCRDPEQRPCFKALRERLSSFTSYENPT
Chain of Ephrin type-A receptor 3 (Homo sapiens) (P29320 whole entry): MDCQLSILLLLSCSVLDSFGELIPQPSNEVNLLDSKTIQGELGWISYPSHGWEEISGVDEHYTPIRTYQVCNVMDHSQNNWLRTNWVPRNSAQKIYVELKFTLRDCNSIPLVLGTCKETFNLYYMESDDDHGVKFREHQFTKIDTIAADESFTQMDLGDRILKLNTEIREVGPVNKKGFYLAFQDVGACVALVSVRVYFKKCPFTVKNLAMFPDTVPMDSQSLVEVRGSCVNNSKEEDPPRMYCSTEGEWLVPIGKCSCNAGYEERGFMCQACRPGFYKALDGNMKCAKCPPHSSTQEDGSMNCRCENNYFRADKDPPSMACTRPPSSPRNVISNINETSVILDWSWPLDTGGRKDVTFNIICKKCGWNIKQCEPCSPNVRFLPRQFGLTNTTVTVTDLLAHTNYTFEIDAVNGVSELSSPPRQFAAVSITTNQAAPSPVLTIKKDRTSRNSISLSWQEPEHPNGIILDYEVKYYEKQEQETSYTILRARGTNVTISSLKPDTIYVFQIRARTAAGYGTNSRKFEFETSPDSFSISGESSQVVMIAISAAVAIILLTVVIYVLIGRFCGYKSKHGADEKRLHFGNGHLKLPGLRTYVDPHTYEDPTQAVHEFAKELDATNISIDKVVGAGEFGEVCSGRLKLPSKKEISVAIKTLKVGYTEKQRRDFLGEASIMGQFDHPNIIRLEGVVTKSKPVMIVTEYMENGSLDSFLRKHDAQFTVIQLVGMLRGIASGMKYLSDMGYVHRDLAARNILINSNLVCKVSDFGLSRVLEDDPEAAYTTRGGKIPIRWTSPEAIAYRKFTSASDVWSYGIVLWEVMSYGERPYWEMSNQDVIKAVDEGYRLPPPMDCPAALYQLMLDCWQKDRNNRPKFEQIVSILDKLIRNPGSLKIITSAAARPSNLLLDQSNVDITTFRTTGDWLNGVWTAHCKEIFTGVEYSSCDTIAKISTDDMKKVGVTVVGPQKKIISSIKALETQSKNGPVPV
Chain of Dual specificity mitogen-activated protein kinase kinase 4 (Homo sapiens) (P45985 whole entry, the tested form may be a part): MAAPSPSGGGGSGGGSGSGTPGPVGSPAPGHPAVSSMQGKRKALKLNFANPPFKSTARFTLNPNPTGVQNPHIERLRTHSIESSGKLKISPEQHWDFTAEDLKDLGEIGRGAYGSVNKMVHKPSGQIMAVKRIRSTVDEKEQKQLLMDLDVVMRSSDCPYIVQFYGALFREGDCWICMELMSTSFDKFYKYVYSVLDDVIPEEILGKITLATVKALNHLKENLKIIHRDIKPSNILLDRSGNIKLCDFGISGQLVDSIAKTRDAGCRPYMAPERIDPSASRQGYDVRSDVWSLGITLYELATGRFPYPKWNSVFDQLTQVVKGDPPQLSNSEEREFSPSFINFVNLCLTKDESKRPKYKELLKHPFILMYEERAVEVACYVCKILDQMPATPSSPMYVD
Chain of Interleukin-1 receptor-associated kinase 3 (Homo sapiens) (Q9Y616 whole entry): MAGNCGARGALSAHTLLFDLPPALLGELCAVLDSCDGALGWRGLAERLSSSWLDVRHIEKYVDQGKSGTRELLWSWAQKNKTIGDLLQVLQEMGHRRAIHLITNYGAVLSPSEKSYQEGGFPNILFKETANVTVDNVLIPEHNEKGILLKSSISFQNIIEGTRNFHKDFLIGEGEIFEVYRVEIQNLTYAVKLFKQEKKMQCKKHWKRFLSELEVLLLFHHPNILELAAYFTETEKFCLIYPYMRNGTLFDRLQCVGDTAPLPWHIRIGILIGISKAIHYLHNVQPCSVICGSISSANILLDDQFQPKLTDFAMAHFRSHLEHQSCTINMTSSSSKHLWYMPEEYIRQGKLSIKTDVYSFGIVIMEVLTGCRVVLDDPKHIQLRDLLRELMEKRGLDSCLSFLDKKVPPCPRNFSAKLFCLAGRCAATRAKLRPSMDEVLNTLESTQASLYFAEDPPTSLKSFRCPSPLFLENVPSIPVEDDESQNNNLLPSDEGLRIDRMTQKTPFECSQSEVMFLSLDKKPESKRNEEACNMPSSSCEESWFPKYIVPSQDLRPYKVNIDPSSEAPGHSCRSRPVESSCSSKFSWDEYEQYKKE
Chain of Phosphorylase b kinase gamma catalytic chain, liver/testis isoform (Homo sapiens) (P15735 whole entry, canonical isoform): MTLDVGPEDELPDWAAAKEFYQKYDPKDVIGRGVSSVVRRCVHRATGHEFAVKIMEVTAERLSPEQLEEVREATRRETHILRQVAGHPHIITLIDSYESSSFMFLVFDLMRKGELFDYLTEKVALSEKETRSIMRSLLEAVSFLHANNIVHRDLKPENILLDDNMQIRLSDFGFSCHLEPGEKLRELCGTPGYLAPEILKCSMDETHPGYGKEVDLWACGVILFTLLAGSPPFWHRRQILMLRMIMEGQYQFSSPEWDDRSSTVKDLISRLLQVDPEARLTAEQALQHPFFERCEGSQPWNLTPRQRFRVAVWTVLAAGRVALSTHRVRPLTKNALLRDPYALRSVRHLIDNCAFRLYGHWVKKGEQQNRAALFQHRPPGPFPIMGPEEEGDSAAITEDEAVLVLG
Chain of Proto-oncogene tyrosine-protein kinase receptor Ret (Homo sapiens), P07949 [V804M] (P07949 whole entry V804M): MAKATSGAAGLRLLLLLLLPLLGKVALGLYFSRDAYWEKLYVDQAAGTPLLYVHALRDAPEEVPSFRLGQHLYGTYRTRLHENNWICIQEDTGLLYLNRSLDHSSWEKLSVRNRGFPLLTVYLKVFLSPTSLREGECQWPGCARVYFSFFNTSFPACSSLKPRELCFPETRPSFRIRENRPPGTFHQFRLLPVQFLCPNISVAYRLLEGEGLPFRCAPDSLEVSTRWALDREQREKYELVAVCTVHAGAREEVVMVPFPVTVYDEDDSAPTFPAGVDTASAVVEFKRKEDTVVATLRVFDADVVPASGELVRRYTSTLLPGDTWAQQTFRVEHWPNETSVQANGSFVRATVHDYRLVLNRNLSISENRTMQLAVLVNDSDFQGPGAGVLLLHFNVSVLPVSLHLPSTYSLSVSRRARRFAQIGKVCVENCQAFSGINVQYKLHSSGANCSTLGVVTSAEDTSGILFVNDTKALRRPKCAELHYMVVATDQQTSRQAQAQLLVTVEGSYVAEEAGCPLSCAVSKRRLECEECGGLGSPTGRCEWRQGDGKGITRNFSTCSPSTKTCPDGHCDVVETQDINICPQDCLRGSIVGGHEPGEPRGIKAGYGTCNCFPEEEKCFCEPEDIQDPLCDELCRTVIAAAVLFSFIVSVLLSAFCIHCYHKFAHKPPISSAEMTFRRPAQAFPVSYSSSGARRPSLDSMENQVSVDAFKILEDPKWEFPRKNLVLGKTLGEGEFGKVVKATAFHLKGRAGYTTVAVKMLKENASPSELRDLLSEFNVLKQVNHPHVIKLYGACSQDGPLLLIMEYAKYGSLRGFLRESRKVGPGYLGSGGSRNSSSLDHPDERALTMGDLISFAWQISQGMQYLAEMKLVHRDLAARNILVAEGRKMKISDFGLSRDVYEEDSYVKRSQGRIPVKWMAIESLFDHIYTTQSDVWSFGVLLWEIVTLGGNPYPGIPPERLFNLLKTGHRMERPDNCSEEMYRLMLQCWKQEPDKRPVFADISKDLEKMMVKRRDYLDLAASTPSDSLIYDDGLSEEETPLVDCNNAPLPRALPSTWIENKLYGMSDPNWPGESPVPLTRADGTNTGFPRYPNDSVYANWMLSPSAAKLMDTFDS
Chain of Serine/threonine-protein kinase PLK3 (Homo sapiens) (Q9H4B4 whole entry, looked up): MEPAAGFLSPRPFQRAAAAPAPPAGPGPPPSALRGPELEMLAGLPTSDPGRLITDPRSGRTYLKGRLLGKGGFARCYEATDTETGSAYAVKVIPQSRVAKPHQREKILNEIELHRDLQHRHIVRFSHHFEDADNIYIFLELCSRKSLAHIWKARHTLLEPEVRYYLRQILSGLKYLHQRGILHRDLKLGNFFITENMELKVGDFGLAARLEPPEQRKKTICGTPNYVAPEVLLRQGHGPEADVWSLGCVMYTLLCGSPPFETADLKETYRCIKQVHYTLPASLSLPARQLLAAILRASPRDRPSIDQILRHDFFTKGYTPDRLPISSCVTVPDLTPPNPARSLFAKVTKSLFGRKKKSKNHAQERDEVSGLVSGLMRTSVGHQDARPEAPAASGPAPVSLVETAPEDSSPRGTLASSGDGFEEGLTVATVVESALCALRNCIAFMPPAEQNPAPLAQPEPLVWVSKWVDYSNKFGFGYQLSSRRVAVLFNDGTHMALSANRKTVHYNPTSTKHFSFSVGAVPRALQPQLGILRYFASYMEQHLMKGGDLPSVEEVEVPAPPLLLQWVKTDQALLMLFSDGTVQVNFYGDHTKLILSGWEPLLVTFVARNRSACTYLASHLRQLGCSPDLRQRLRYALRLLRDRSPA
Chain of Serine/threonine-protein kinase 25 (Homo sapiens) (O00506 whole entry, looked up): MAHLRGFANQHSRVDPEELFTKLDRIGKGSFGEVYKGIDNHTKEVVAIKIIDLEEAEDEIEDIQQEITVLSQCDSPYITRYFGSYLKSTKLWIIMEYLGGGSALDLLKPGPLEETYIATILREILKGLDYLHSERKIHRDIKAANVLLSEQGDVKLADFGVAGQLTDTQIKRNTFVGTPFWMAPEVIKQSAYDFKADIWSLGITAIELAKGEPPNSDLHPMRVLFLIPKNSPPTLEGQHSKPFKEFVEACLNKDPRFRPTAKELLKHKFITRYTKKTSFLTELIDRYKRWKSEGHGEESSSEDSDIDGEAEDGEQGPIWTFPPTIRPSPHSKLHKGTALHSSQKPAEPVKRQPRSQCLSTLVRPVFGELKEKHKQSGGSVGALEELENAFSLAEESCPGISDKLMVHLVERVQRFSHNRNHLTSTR

CCN1CCN(Cc2ccc(NC(=O)c3ccc(C)c(C#Cc4cnc5[nH]ccc5c4)c3)cc2C(F)(F)F)CC1
residual binding, % of control [1]: 100% | inhibition [2]: 92% | residual binding, % of control [3]: 0.15% | level, % of control [4]: 0% | residual binding, % of control [5]: 100% | residual binding, % of control [6]: 100% | inhibition [7]: 79% | residual binding, % of control [8]: 61% | residual binding, % of control [9]: 0.05% | level, % of control [10]: 22% | inhibition [11]: 98% | residual binding, % of control [12]: 0% | inhibition [13]: 1.7% | residual binding, % of control [14]: 2.7% | residual binding, % of control [15]: 0% | residual binding, % of control [16]: 2% | inhibition [17]: 56% | residual binding, % of control [18]: 100% | inhibition [19]: 100% | inhibition [20]: 60% | residual binding, % of control [21]: 0.4% | residual binding, % of control [22]: 100% | residual binding, % of control [23]: 2.8% | residual binding, % of control [24]: 96% | residual binding, % of control [25]: 96% | residual binding, % of control [26]: 1.6% | residual binding, % of control [27]: 100% | inhibition [28]: 60% | level, % of control [29]: 100% | residual binding, % of control [30]: 4.8% | residual binding, % of control [31]: 0.1% | residual binding, % of control [32]: 25% | inhibition [33]: 29% | residual binding, % of control [34]: 89% | inhibition [35]: 100% | residual binding, % of control [36]: 2.5% | inhibition [37]: 100% | residual binding, % of control [38]: 6.8% | residual binding, % of control [39]: 0% | inhibition [40]: 50% | residual binding, % of control [41]: 2.4% | residual binding, % of control [42]: 12% | residual binding, % of control [43]: 0.75% | % of control [44]: 0.25%

CCN1CCN(Cc2ccc(NC(=O)c3ccc(C)c(C#Cc4cccnc4)c3)cc2C(F)(F)F)CC1
residual binding, % of control [1]: 100% | inhibition [2]: 90% | residual binding, % of control [3]: 0% | level, % of control [4]: 0% | residual binding, % of control [5]: 100% | residual binding, % of control [6]: 100% | inhibition [7]: 67% | residual binding, % of control [8]: 50% | residual binding, % of control [9]: 0% | level, % of control [10]: 29% | inhibition [11]: 85% | residual binding, % of control [12]: 0% | inhibition [13]: 43% | residual binding, % of control [14]: 0.25% | residual binding, % of control [15]: 0% | residual binding, % of control [16]: 0.5% | inhibition [17]: 57% | residual binding, % of control [18]: 100% | inhibition [19]: 92% | inhibition [20]: 34% | residual binding, % of control [21]: 0.4% | residual binding, % of control [22]: 100% | residual binding, % of control [23]: 1% | residual binding, % of control [24]: 100% | residual binding, % of control [25]: 80% | residual binding, % of control [26]: 0.85% | residual binding, % of control [27]: 100% | inhibition [28]: 84% | level, % of control [29]: 100% | residual binding, % of control [30]: 1.4% | residual binding, % of control [31]: 0% | residual binding, % of control [32]: 43% | inhibition [33]: 6.8% | residual binding, % of control [34]: 88% | inhibition [35]: 88% | residual binding, % of control [36]: 2.8% | inhibition [37]: 100% | residual binding, % of control [38]: 4.2% | residual binding, % of control [39]: 0% | inhibition [40]: 77% | residual binding, % of control [41]: 2.8% | residual binding, % of control [42]: 16% | residual binding, % of control [43]: 0.85% | % of control [44]: 0.2%

— ChEMBL document CHEMBL1177794, “Broad spectrum alkynyl inhibitors of T315I Bcr-Abl” (Bioorg Med Chem Lett, 2010)
